Source: patent US12637437B2, “Herbicidal compounds” (SYNGENTA CROP PROTECTION AG, priority 2021, dated 2026)

How the values were obtained:
Assay type in all cases: in vivo
[1] = system: Amaranthus retoflexus (AMARE); assay: Post-emergence herbicidal glasshouse test, AMARE; set-up: dose or concentration left out as unconfirmed; conditions: evaluated after 13 days, five-point scale
Method: (§1) Seeds of a variety of test species are sown in standard soil in pots (Lolium perenne (LOLPE), Amaranthus retoflexus (AMARE), Abutilon theophrasti (ABUTH), Setaria faberi (SETFA), Echinochloa crus-galli (ECHCG), Ipomoea hederacea (IPOHE)). After cultivation for one day (pre-emergence) or after 8 days cultivation (post-emergence) under controlled conditions in a glasshouse (at 24/16° C., day/night; 14 hours light; 65% humidity), the plants are sprayed with an aqueous spray solution derived from the formulation of the technical active ingredient in acetone/water (50:50) solution containing 0.5% Tween 20 (polyoxyethelyene sorbitan monolaurate, CAS RN 9005-64-5). Compounds are applied at 125 g/h unless otherwise indicated. The test plants are then grown in a glasshouse under controlled conditions in a glasshouse (at 24/16° C., day/night; 14 hours light; 65% humidity) and watered twice daily. After 13 days for pre and post-emergence, the test is evaluated for the percentage damage caused to the plant. The biological activities are shown in the following table on a five-point scale (5=80-100%; 4=60-79%; 3=40-59%; 2=20-39%; 1=0-19%). “—” denotes not tested on this species or data not captured.

[2] = system: Abutilon theophrasti (ABUTH); assay: Post-emergence herbicidal glasshouse test, ABUTH; conditions: 125 g/h, evaluated after 13 days, five-point scale
Method: as §1

[3] = system: Setaria faberi (SETFA); assay: Post-emergence herbicidal glasshouse test, SETFA; conditions: 125 g/h, evaluated after 13 days, five-point scale
Method: as §1

[4] = system: Echinochloa crus-galli (ECHCG); assay: Post-emergence herbicidal glasshouse test, ECHCG; conditions: 125 g/h, evaluated after 13 days, five-point scale
Method: as §1

[5] = system: Ipomoea hederacea (IPOHE); assay: Post-emergence herbicidal glasshouse test, IPOHE; conditions: 125 g/h, evaluated after 13 days, five-point scale
Method: as §1

[6] = system: Amaranthus retoflexus (AMARE); assay: Pre-emergence herbicidal glasshouse test, AMARE; conditions: 125 g/h, evaluated after 13 days, five-point scale
Method: as §1

[7] = system: Abutilon theophrasti (ABUTH); assay: Pre-emergence herbicidal glasshouse test, ABUTH; conditions: 125 g/h, evaluated after 13 days, five-point scale
Method: as §1

[8] = system: Setaria faberi (SETFA); assay: Pre-emergence herbicidal glasshouse test, SETFA; conditions: 125 g/h, evaluated after 13 days, five-point scale
Method: as §1

[9] = system: Echinochloa crus-galli (ECHCG); assay: Pre-emergence herbicidal glasshouse test, ECHCG; conditions: 125 g/h, evaluated after 13 days, five-point scale
Method: as §1

[10] = system: Ipomoea hederacea (IPOHE); assay: Pre-emergence herbicidal glasshouse test, IPOHE; conditions: 125 g/h, evaluated after 13 days, five-point scale
Method: as §1

With COC(=O)Nc1c(OC(F)(F)F)ccc(C(=O)Nc2nnnn2C)c1Cl [Compound 1.001] the “percentage damage caused to the plant, POST Application AMARE” value [1] was 5 (5=80-100%), the “percentage damage caused to the plant, POST Application ABUTH” value [2] was 5 (5=80-100%) and the “percentage damage caused to the plant, POST Application SETFA” value [3] was 5 (5=80-100%). For the same compound, the “percentage damage caused to the plant, POST Application ECHCG” value [4] was 5 (5=80-100%), the “percentage damage caused to the plant, POST Application IPOHE” value [5] was 5 (5=80-100%) and the “percentage damage caused to the plant, PRE Application AMARE” value [6] was 5 (5=80-100%). The “percentage damage caused to the plant, PRE Application ABUTH” value [7] was 5 (5=80-100%), the “percentage damage caused to the plant, PRE Application SETFA” value [8] was 5 (5=80-100%) and the “percentage damage caused to the plant, PRE Application ECHCG” value [9] was 5 (5=80-100%). For the same compound, the “percentage damage caused to the plant, PRE Application IPOHE” value [10] was 3 (3=40-59%).
For CCOC(=O)Nc1c(OC(F)(F)F)ccc(C(=O)Nc2nnnn2C)c1Cl [Compound 1.002, ethyl N-[2-chloro-3-[(1-methyltetrazol-5-yl)carbamoyl]-6-(trifluoromethoxy)phenyl]carbamate], the “percentage damage caused to the plant, POST Application AMARE” value [1] was 4 (4=60-79%), the “percentage damage caused to the plant, POST Application ABUTH” value [2] was 4 (4=60-79%) and the “percentage damage caused to the plant, POST Application SETFA” value [3] was 4 (4=60-79%). For the same compound, the “percentage damage caused to the plant, POST Application ECHCG” value [4] was 4 (4=60-79%), the “percentage damage caused to the plant, POST Application IPOHE” value [5] was 4 (4=60-79%) and the “percentage damage caused to the plant, PRE Application AMARE” value [6] was 5 (5=80-100%). The “percentage damage caused to the plant, PRE Application ABUTH” value [7] was 5 (5=80-100%), the “percentage damage caused to the plant, PRE Application SETFA” value [8] was 4 (4=60-79%) and the “percentage damage caused to the plant, PRE Application ECHCG” value [9] was 5 (5=80-100%). For the same compound, the “percentage damage caused to the plant, PRE Application IPOHE” value [10] was 5 (5=80-100%).
CCn1nnnc1NC(=O)c1ccc(OC(F)(F)F)c(NC(=O)OC)c1Cl [Compound 1.003] was tested, and the “percentage damage caused to the plant, POST Application AMARE” value [1] was 4 (4=60-79%), the “percentage damage caused to the plant, POST Application ABUTH” value [2] was 4 (4=60-79%) and the “percentage damage caused to the plant, POST Application SETFA” value [3] was 4 (4=60-79%). The “percentage damage caused to the plant, POST Application ECHCG” value [4] was 4 (4=60-79%), the “percentage damage caused to the plant, POST Application IPOHE” value [5] was 4 (4=60-79%) and the “percentage damage caused to the plant, PRE Application AMARE” value [6] was 5 (5=80-100%). The “percentage damage caused to the plant, PRE Application ABUTH” value [7] was 5 (5=80-100%), the “percentage damage caused to the plant, PRE Application SETFA” value [8] was 5 (5=80-100%) and the “percentage damage caused to the plant, PRE Application ECHCG” value [9] was 5 (5=80-100%). The “percentage damage caused to the plant, PRE Application IPOHE” value [10] was 4 (4=60-79%).
CCOC(=O)Nc1c(OC(F)(F)F)ccc(C(=O)Nc2nnnn2CC)c1Cl [Compound 1.004] was tested, and the “percentage damage caused to the plant, POST Application AMARE” value [1] was 4 (4=60-79%), the “percentage damage caused to the plant, POST Application ABUTH” value [2] was 4 (4=60-79%) and the “percentage damage caused to the plant, POST Application SETFA” value [3] was 4 (4=60-79%). For the same compound, the “percentage damage caused to the plant, POST Application ECHCG” value [4] was 4 (4=60-79%), the “percentage damage caused to the plant, POST Application IPOHE” value [5] was 4 (4=60-79%) and the “percentage damage caused to the plant, PRE Application AMARE” value [6] was 5 (5=80-100%). For the same compound, the “percentage damage caused to the plant, PRE Application ABUTH” value [7] was 5 (5=80-100%), the “percentage damage caused to the plant, PRE Application SETFA” value [8] was 3 (3=40-59%) and the “percentage damage caused to the plant, PRE Application ECHCG” value [9] was 5 (5=80-100%). The “percentage damage caused to the plant, PRE Application IPOHE” value [10] was 4 (4=60-79%).
In the case of COC(=O)Nc1c(OC(F)F)ccc(C(=O)Nc2nnnn2C)c1Cl [Compound 1.005], the “percentage damage caused to the plant, POST Application AMARE” value [1] is reported as 5 (5=80-100%), the “percentage damage caused to the plant, POST Application ABUTH” value [2] is reported as 5 (5=80-100%) and the “percentage damage caused to the plant, POST Application SETFA” value [3] is reported as 5 (5=80-100%). For the same compound, the “percentage damage caused to the plant, POST Application ECHCG” value [4] was 5 (5=80-100%), the “percentage damage caused to the plant, POST Application IPOHE” value [5] was 5 (5=80-100%) and the “percentage damage caused to the plant, PRE Application AMARE” value [6] was 5 (5=80-100%). For the same compound, the “percentage damage caused to the plant, PRE Application ABUTH” value [7] was 5 (5=80-100%), the “percentage damage caused to the plant, PRE Application SETFA” value [8] was 4 (4=60-79%) and the “percentage damage caused to the plant, PRE Application ECHCG” value [9] was 5 (5=80-100%). The “percentage damage caused to the plant, PRE Application IPOHE” value [10] was 4 (4=60-79%).
In the case of COCCOC(=O)Nc1c(OC(F)(F)F)ccc(C(=O)Nc2nnnn2C)c1Cl [Compound 1.006], the “percentage damage caused to the plant, POST Application AMARE” value [1] is reported as 5 (5=80-100%), the “percentage damage caused to the plant, POST Application ABUTH” value [2] is reported as 5 (5=80-100%) and the “percentage damage caused to the plant, POST Application SETFA” value [3] is reported as 4 (4=60-79%). For the same compound, the “percentage damage caused to the plant, POST Application ECHCG” value [4] was 4 (4=60-79%), the “percentage damage caused to the plant, POST Application IPOHE” value [5] was 4 (4=60-79%) and the “percentage damage caused to the plant, PRE Application AMARE” value [6] was 4 (4=60-79%). For the same compound, the “percentage damage caused to the plant, PRE Application ABUTH” value [7] was 5 (5=80-100%), the “percentage damage caused to the plant, PRE Application SETFA” value [8] was 4 (4=60-79%) and the “percentage damage caused to the plant, PRE Application ECHCG” value [9] was 5 (5=80-100%). The “percentage damage caused to the plant, PRE Application IPOHE” value [10] was 4 (4=60-79%).
For CC(C)OC(=O)Nc1c(OC(F)(F)F)ccc(C(=O)Nc2nnnn2C)c1Cl [Compound 1.007], the “percentage damage caused to the plant, POST Application AMARE” value [1] was 4 (4=60-79%), the “percentage damage caused to the plant, POST Application ABUTH” value [2] was 5 (5=80-100%) and the “percentage damage caused to the plant, POST Application SETFA” value [3] was 4 (4=60-79%). The “percentage damage caused to the plant, POST Application ECHCG” value [4] was 4 (4=60-79%), the “percentage damage caused to the plant, POST Application IPOHE” value [5] was 4 (4=60-79%) and the “percentage damage caused to the plant, PRE Application AMARE” value [6] was 5 (5=80-100%). For the same compound, the “percentage damage caused to the plant, PRE Application ABUTH” value [7] was 5 (5=80-100%), the “percentage damage caused to the plant, PRE Application SETFA” value [8] was 4 (4=60-79%) and the “percentage damage caused to the plant, PRE Application ECHCG” value [9] was 5 (5=80-100%). The “percentage damage caused to the plant, PRE Application IPOHE” value [10] was 4 (4=60-79%).
CCOC(=O)Nc1c(OC(F)F)ccc(C(=O)Nc2nnnn2C)c1Cl [Compound 1.008] was tested, and the “percentage damage caused to the plant, POST Application AMARE” value [1] was 4 (4=60-79%), the “percentage damage caused to the plant, POST Application ABUTH” value [2] was 4 (4=60-79%) and the “percentage damage caused to the plant, POST Application SETFA” value [3] was 4 (4=60-79%). For the same compound, the “percentage damage caused to the plant, POST Application ECHCG” value [4] was 4 (4=60-79%), the “percentage damage caused to the plant, POST Application IPOHE” value [5] was 4 (4=60-79%) and the “percentage damage caused to the plant, PRE Application AMARE” value [6] was 5 (5=80-100%). For the same compound, the “percentage damage caused to the plant, PRE Application ABUTH” value [7] was 5 (5=80-100%), the “percentage damage caused to the plant, PRE Application SETFA” value [8] was 4 (4=60-79%) and the “percentage damage caused to the plant, PRE Application ECHCG” value [9] was 5 (5=80-100%). The “percentage damage caused to the plant, PRE Application IPOHE” value [10] was 4 (4=60-79%).
CCOC(=O)Nc1c(OC(F)F)ccc(C(=O)Nc2nnnn2CC)c1Cl [Compound 1.009] was tested, and the “percentage damage caused to the plant, POST Application AMARE” value [1] was 4 (4=60-79%), the “percentage damage caused to the plant, POST Application ABUTH” value [2] was 4 (4=60-79%) and the “percentage damage caused to the plant, POST Application SETFA” value [3] was 3 (3=40-59%). For the same compound, the “percentage damage caused to the plant, POST Application ECHCG” value [4] was 5 (5=80-100%), the “percentage damage caused to the plant, POST Application IPOHE” value [5] was 4 (4=60-79%) and the “percentage damage caused to the plant, PRE Application AMARE” value [6] was 5 (5=80-100%). The “percentage damage caused to the plant, PRE Application ABUTH” value [7] was 5 (5=80-100%), the “percentage damage caused to the plant, PRE Application SETFA” value [8] was 3 (3=40-59%) and the “percentage damage caused to the plant, PRE Application ECHCG” value [9] was 4 (4=60-79%). The “percentage damage caused to the plant, PRE Application IPOHE” value [10] was 4 (4=60-79%).
For CCOC(=O)N(CC)c1c(OC(F)F)ccc(C(=O)Nc2nnnn2C)c1Cl [Compound 1.044], the “percentage damage caused to the plant, POST Application AMARE” value [1] was 5 (5=80-100%), the “percentage damage caused to the plant, POST Application SETFA” value [3] was 5 (5=80-100%) and the “percentage damage caused to the plant, POST Application ECHCG” value [4] was 5 (5=80-100%). The “percentage damage caused to the plant, POST Application IPOHE” value [5] was 4 (4=60-79%), the “percentage damage caused to the plant, PRE Application AMARE” value [6] was 5 (5=80-100%) and the “percentage damage caused to the plant, PRE Application SETFA” value [8] was 4 (4=60-79%). The “percentage damage caused to the plant, PRE Application ECHCG” value [9] was 5 (5=80-100%) and the “percentage damage caused to the plant, PRE Application IPOHE” value [10] was 2 (2=20-39%).
